Where two headings read alike, the source gives them in different places.
What was measured:
Assay type in all cases: cell-based, human
HCT-15 = experiment: 3H thymidine proliferation assay, HCT-15
Protocol: (§1) This example generally describes the procedures used to assay the antiproliferative activity of compounds of this invention or their conjugates. Human tumor cell lines were obtained from the American Type Culture Collection (ATCC), P.O. Box 1549, Manassas, Va. 20108, USA, and cultured according to instruction from the ATCC. Cells were seeded at 1.0×10^3 or 1.0×10^4 cells/well in 96-well plates for 3 h for ATP assays or ^3H thymidine assays, respectively. 1:3 serial dilutions of free (unconjugated) compounds or their conjugates were added to the wells. Plates were allowed to incubate for 24 to 72 h. The ^3H thymidine plates were pulsed with 1.0 μCi of ^3H-thymidine per well for the last 24 hours of the total incubation period, harvested, and read on a Top Count Scintillation Counter (Packard Instruments, Meriden, Conn.). ATP levels in the ATP plates were measured using the […]-GLO® Luminescent Cell Viability kit following the manufacturer's manual and read on a GLOMAX® 20/20 luminometer (both from Promega, Madison, Wis., USA). The EC50 values—the concentration at which an agent inhibits or reduces cell proliferation by 50% —were determined using PRISM™ software, version 4.0 (GraphPad Software, La Jolla, Calif., USA).
(§2) Using the ^3H thymidine or the ATP luminescence assay, or both, the activities of compounds of this invention were assayed against the following cancer cell lines: HCT-15 (colorectal cancer, multi-drug resistant (MDR)); Hep3B (liver cancer); LNCaP (prostate cancer, androgen receptor positive (AR^+)); MDA-MB-231 (breast cancer, estrogen receptor, progesterone receptor, and Her2 negative (triple negative)); A2058 (melanoma); U-87 MG (glioblastoma); NCI-H460 (NSCLC); A549 (NSCLC); HPAC (pancreatic cancer, primary); PC3 (prostate cancer, AR); BT474 (breast cancer, Her2 highly positive (Her2hi)); SKOV3 (ovarian cancer, Her2hi); 786-O (renal cancer); UO-31 (renal cancer, MDR); NCI-H740 (SCLC); DMS53 (SCLC); SK-BR3 (breast cancer, Her2hi); ZR-75 (breast cancer, estrogen receptor positive); OVCAR3 (ovarian cancer); HL-60 (APL); OVCAR8/Adr (ovarian cancer, MDR); CEM-Cl (ALL); Nomo-1 (AML); RPMI-8226 (MM)); Raji (lymphoma); SW-480 (colorectal cancer, metastatic); SW-620 (colorectal cancer); and H226 (lung cancer). (Not all compounds were assayed against all cell lines.)
(§3) Table 2 provides the data for proliferation assays using the ^3H thymidine method, with an incubation period of 72 h.

LNCaP = experiment: 3H thymidine proliferation assay, LNCaP
Protocol: as §1, §2, §3

MDA-MB-231 = experiment: 3H thymidine proliferation assay, MDA-MB-231
Protocol: as §1, §2, §3

U-87 MG = experiment: 3H thymidine proliferation assay, U-87 MG
Protocol: as §1, §2, §3

CEM-C1 = experiment: 3H thymidine proliferation assay, CEM-C1
Protocol: as §1, §2, §3

Nomo-1 [1] = experiment: 3H thymidine proliferation assay, Nomo-1
Protocol: as §1, §2, §3

RPMI-8226 = experiment: 3H thymidine proliferation assay, RPMI-8226
Protocol: as §1, §2, §3

Hep3B = experiment: ATP luminescence proliferation assay, Hep3B; conditions: Homo sapiens, 48 h, read-out: EC50 Hep3B (48 h), ATP luminescence, Hep3B, 48 h incubation
Protocol: as §1, §2
(§4) Table 3 provides the data for the ATP luminescence proliferation assays, with an incubation period of 48, 72, or 96 h, as noted.

SKOV3 = experiment: ATP luminescence proliferation assay, SKOV3
Protocol: as §1, §2, §4

786-O = experiment: ATP luminescence proliferation assay, 786-O
Protocol: as §1, §2
(§5) FIGS. 12a and 12b show illustrative plots for ATP luminescence proliferation assays for a second set of compounds of this invention, against HL-60 and 786-O cells, respectively, with an incubation period of 72 h. FIGS. 12c and 12d show the plots for ^3H thymidine proliferation assays for the same set of compounds, again against HL-60 and 786-O cells, respectively, with a 72 h incubation period. In each instance, doxorubicin was used as a comparative compound.
as §4

DMS53 = experiment: ATP luminescence proliferation assay, DMS53
Protocol: as §1, §2, §4

SK-BR3 = experiment: ATP luminescence proliferation assay, SK-BR3
Protocol: as §1, §2, §4

HL-60 = experiment: ATP luminescence proliferation assay, HL-60
Protocol: as §1, §2, §5, §4

Nomo-1 [2] = experiment: ATP luminescence proliferation assay, Nomo-1
Protocol: as §1, §2, §4

SW-480 = experiment: ATP luminescence proliferation assay, SW-480
Protocol: as §1, §2, §4

ZR-75 = experiment: 3H thymidine proliferation assay, ZR-75
Protocol: as §1, §2, §3

UO-31 = experiment: ATP luminescence proliferation assay, UO-31; conditions: Homo sapiens, UO-31, 48 h, read-out: EC50 UO-31 (48 h), ATP luminescence, UO-31, 48 h incubation
Protocol: as §1, §2, §4

[3] = Homo sapiens, HCT-15, read-out: EC50, HCT-15, 3H thymidine method, 72 h incubation
[4] = Homo sapiens, LNCaP, read-out: EC50, LNCaP, 3H thymidine method, 72 h incubation
[5] = Homo sapiens, MDA-MB-231, read-out: EC50, MDA-MB-231, 3H thymidine method, 72 h incubation
[6] = Homo sapiens, U-87 MG, read-out: EC50, U-87 MG, 3H thymidine method, 72 h incubation
[7] = Homo sapiens, CEM/C1, read-out: EC50, CEM-C1, 3H thymidine method, 72 h incubation
[8] = Homo sapiens, NOMO-1, read-out: EC50, Nomo-1, 3H thymidine method, 72 h incubation
[9] = Homo sapiens, RPMI-8226, read-out: EC50, RPMI-8226, 3H thymidine method, 72 h incubation
[10] = Homo sapiens, SK-OV-3, 48 h, read-out: EC50 SKOV3 (48 h), ATP luminescence, SKOV3, 48 h incubation
[11] = Homo sapiens, 786-0, 72 h, read-out: EC50 786-O (72 h), ATP luminescence, 786-O, 72 h incubation
[12] = Homo sapiens, DMS-53, 48 h, read-out: EC50 DMS53 (48 h), ATP luminescence, DMS53, 48 h incubation
[13] = Homo sapiens, SK-BR-3, 48 h, read-out: EC50 SK-BR3 (48 h), ATP luminescence, SK-BR3, 48 h incubation
[14] = Homo sapiens, HL-60, 72 h, read-out: EC50 HL-60 (72 h), ATP luminescence, HL-60, 72 h incubation
[15] = Homo sapiens, NOMO-1, 72 h, read-out: EC50 Nomo-1 (72 h), ATP luminescence, Nomo-1, 72 h incubation
[16] = Homo sapiens, SW480, 96 h, read-out: EC50 SW480 (96 h), ATP luminescence, SW480, 96 h incubation

Molecule `CC[C@H](C)[C@H](NC(=O)[C@H]1CCCCN1C)C(=O)N(C)[C@H](C[C@@H](OC)c1nc(C(=O)NC(Cc2ccccc2)C[C@H](C)C(=O)O)cs1)C(C)C` (some centres unmarked) [Compound 15] has an EC50 (HCT-15; [3]) of 67 nM, an EC50 (LNCaP; [4]) of 27 nM and an EC50 (MDA-MB-231; [5]) of 1.3 nM. It also gave an EC50 (U-87 MG; [6]) of 0.42 nM, an EC50 (CEM-C1; [7]) of 0.93 nM and an EC50 (Nomo-1 [1]; [8]) of 2.3 nM. The EC50 (RPMI-8226; [9]) was 3.3 nM, the EC50 (Hep3B) was 6.3 nM and the EC50 (SKOV3; [10]) was 4.2 nM. For the same molecule, the EC50 (786-O; [11]) was 9.4 nM, the EC50 (DMS53; [12]) was 32 nM and the EC50 (SK-BR3; [13]) was 3.9 nM. For the same molecule, the EC50 (HL-60; [14]) was 2.7 nM, the EC50 (Nomo-1 [2]; [15]) was 2.7 nM and the EC50 (SW-480; [16]) was 5.6 nM.

Molecule `CC[C@H](C)[C@H](NC(=O)[C@H]1CCCCN1C)C(=O)N(C)[C@H](C[C@@H](OC)c1nc(C(=O)N[C@@H](Cc2ccccc2)C(=O)OC)cs1)C(C)C` [Compound 16] has an EC50 (HCT-15; 3H thymidine method, 72 h incubation, read-out: EC50, HCT-15) of 284 nM, an EC50 (LNCaP; 3H thymidine method, 72 h incubation, read-out: EC50, LNCaP) greater than 100 nM and an EC50 (MDA-MB-231; 3H thymidine method, 72 h incubation, read-out: EC50, MDA-MB-231) greater than 100 nM. For the same molecule, the EC50 (U-87 MG; 3H thymidine method, 72 h incubation, read-out: EC50, U-87 MG) was greater than 100 nM, the EC50 (ZR-75; 3H thymidine method, 72 h incubation, read-out: EC50, ZR-75) was greater than 100 nM and the EC50 (CEM-C1; 3H thymidine method, 72 h incubation, read-out: EC50, CEM-C1) was 11 nM. It also gave an EC50 (Nomo-1 [1]; 3H thymidine method, 72 h incubation, read-out: EC50, Nomo-1) of 1.8 nM, an EC50 (RPMI-8226; 3H thymidine method, 72 h incubation, read-out: EC50, RPMI-8226) of 22 nM and an EC50 (SKOV3; ATP luminescence, SKOV3, 48 h incubation, read-out: EC50 SKOV3 (48 h)) of 18 nM. For the same molecule, the EC50 (786-O; ATP luminescence, 786-O, 72 h incubation, read-out: EC50 786-O (72 h)) was 36 nM, the EC50 (DMS53; ATP luminescence, DMS53, 48 h incubation, read-out: EC50 DMS53 (48 h)) was 50 nM and the EC50 (SK-BR3; ATP luminescence, SK-BR3, 48 h incubation, read-out: EC50 SK-BR3 (48 h)) was 6.6 nM. For the same molecule, the EC50 (HL-60; ATP luminescence, HL-60, 72 h incubation, read-out: EC50 HL-60 (72 h)) was 2.8 nM, the EC50 (Nomo-1 [2]; ATP luminescence, Nomo-1, 72 h incubation, read-out: EC50 Nomo-1 (72 h)) was 3.1 nM and the EC50 (SW-480; ATP luminescence, SW480, 96 h incubation, read-out: EC50 SW480 (96 h)) was 48 nM.

`CCCC(NC(=O)c1csc([C@@H](C[C@H](C(C)C)N(C)C(=O)[C@@H](NC(=O)[C@H]2CCCCN2C)[C@@H](C)CC)OC)n1)C(=O)OC` (some centres unmarked) [Compound 17] showed an EC50 (HCT-15; [3]) of 392 nM, an EC50 (LNCaP; [4]) greater than 100 nM and an EC50 (MDA-MB-231; [5]) of 84 nM. It also gave an EC50 (U-87 MG; [6]) of 12 nM, an EC50 (ZR-75; Homo sapiens, ZR75, read-out: EC50, ZR-75, 3H thymidine method, 72 h incubation) greater than 100 nM and an EC50 (CEM-C1; [7]) of 43 nM. It also gave an EC50 (Nomo-1 [1]; [8]) of 6.8 nM, an EC50 (RPMI-8226; [9]) of 47 nM and an EC50 (Hep3B) greater than 100 nM. The EC50 (SKOV3; [10]) was 58 nM, the EC50 (786-O; [11]) was 73 nM and the EC50 (UO-31) was greater than 100 nM. The EC50 (DMS53; [12]) was roughly 80 nM, the EC50 (SK-BR3; [13]) was 24 nM and the EC50 (HL-60; [14]) was 7.4 nM. The EC50 (Nomo-1 [2]; [15]) was 3.9 nM and the EC50 (SW-480; [16]) was 92 nM.
